6 compounds from patent publication US20150218212A1, “FLUORINATED EPOXYKETONE-BASED TETRAPEPTIDE COMPOUNDS AND USES THEREOF AS PROTEASOME INHIBITORS” (FLUORINOV PHARMA INC., priority 2012, published 2015) can be followed below.

One test has as its system OCI-AML-2. Kind of test: Cell viability (MTS) assay, OCI-AML-2. Conditions: Homo sapiens, OCI-AML2; OCI-AML-2, MTS, 72 hours, mean ± standard deviation. It is filed as cell-based. As to the method:
Human multiple myeloma cell lines 8226, H929, JJN3, KMH11, KMS11, KMS18, LP1, MM1S, OPM2 and U266 were grown in Iscove modified Dulbecco's medium (IMDM). Human leukemia cell lines K562, OCI-AML2 and U937 were cultured in RPMI-1640 medium. Primary peripheral blood mononuclear cells were isolated from multiple myeloma patients by Ficoll density gradient centrifugation and bone marrow aspirates were obtained from multiple myeloma patients at the Princess Margaret Cancer Centre of the University Health Network (UHN; Toronto, ON, Canada). Primary cells were cultured in IMDM. The collection and use of human tissue for this study was approved by the UHN institutional ethics review board. All cell culture media were obtained from the Ontario Cancer Institute Tissue Culture Media Facility (Toronto, ON, Canada) and were supplemented with 10% fetal calf serum, […] (Hyclone, Logan, Utah). All cells were grown in a humidified incubator at 37° C. with 5% CO2.
Cellular viability was primarily assessed by 3-(4,5-dimethylthiazol-2-yl)-5-(3-carboxymethoxyphenyl)-2-(4-sulfophenyl)-2H-tetrazolium (MTS) assay according to the manufacturer's instructions (Promega; Madison, Wis.). Cells were first seeded at a density of 10,000 cells per well in tissue culture-treated 96-well plates. Two hours after seeding, cells were treated with compounds for 72 hours at concentrations as indicated. As a control, cells were treated with DMSO alone in every assay plate. Following treatment and the MTS assay, cell viability was independently confirmed by reading the optical density (O.D.) at 490 nm and by exclusion of trypan blue stain (Invitrogen; Burlington, ON, Canada). The viability of primary mononuclear cells was determined by staining with Annexin V.
Table 8 summarizes the data of representative compounds of Formula I for cell viability and CT-L proteasome activity with OCI-AML-2 and KMS-11 cell lines.

The subject of another test is K-562. Kind of test: NCI screening panel, K-562 (Leukemia). The class given is cell-based, human. On the procedure:
(§1) Representative compounds of Formula I were screened using the National Cancer Institute (NCI) screening panel, which consists of a panel of human tumor cell lines, representing leukemia, melanoma, and cancers of the lung, colon, ovary, breast, prostate and renal system.
(§2) After 24 h, two plates of each cell line are fixed in situ with TCA, to represent a measurement of the cell population for each cell line at the time of drug addition (Tz). Experimental drugs are solubilised in dimethyl sulfoxide at 400-fold the desired final maximum test concentration and stored frozen prior to use. At the time of drug addition, an aliquot of frozen concentrate is thawed and diluted to twice the desired final maximum test concentration with complete medium containing 50 μg/mL gentamicin. Additional four, 10-fold or ½ log serial dilutions are made to provide a total of five drug concentrations plus control. Aliquots of 100 μl of these different drug dilutions are added to the appropriate microtiter wells already containing 100 μl of medium, resulting in the required final drug concentrations.
(§3) Following drug addition, the plates are incubated for an additional 48 h at 37° C., 5% CO2, 95% air, and 100% relative humidity. For adherent cells, the assay is terminated by the addition of cold TCA (trichloroacetic acid). Cells are fixed in situ by the gentle addition of 50 μl of cold 50% (w/v) TCA (final concentration, 10% TCA) and incubated for 60 minutes at 4° C. The supernatant is discarded, and the plates are washed five times with tap water and air dried. Sulforhodamine B (SRB) solution (100 μl) at 0.4% (w/v) in 1% acetic acid is added to each well, and plates are incubated for 10 minutes at room temperature. After staining, unbound dye is removed by washing five times with 1% acetic acid and the plates are air dried. Bound stain is subsequently solubilised with 10 mM trizma base, and the absorbance is read on an automated plate reader at a wavelength of 515 nm. For suspension cells, the methodology is the same except that the assay is terminated by fixing settled cells at the bottom of the wells by gently adding 50 μl of 80% TCA (final concentration, 16% TCA). Using the seven absorbance measurements [time zero, (Tz), control growth, (C), and test growth in the presence of drug at the five concentration levels (Ti)], the percentage growth is calculated at each of the drug concentrations levels. Percentage growth inhibition is calculated as: [(Ti−Tz)/(C−Tz)]×100 for concentrations for which Ti>/=Tz and [(Ti−Tz)/Tz]×100 for concentrations for which Ti<Tz.
(§4) Three dose response parameters are calculated for each experimental agent. Growth inhibition of 50% (GI50) is calculated from [(Ti−Tz)/(C−Tz)]×100=50, which is the drug concentration resulting in a 50% reduction in the net protein increase (as measured by SRB staining) in control cells during the drug incubation. The drug concentration resulting in total growth inhibition (TGI) is calculated from Ti=Tz. The LC50 (concentration of drug resulting in a 50% reduction in the measured protein at the end of the drug treatment as compared to that at the beginning) indicating a net loss of cells following treatment is calculated from [(Ti−Tz)/Tz]×100=−50. Values are calculated for each of these three parameters if the level of activity is reached. However, if the effect is not reached or is exceeded, the value for that parameter is expressed as greater or less than the maximum or minimum concentration tested.

In another test the test system is HCC-2998. The test is described as follows: NCI screening panel, HCC-2998 (Colon Cancer). It is filed as cell-based, human. As to the method:
as §1, §2, §3, §4

The next test has as its system CCRF-CEM. The test is described as follows: NCI screening panel, CCRF-CEM (Leukemia). The class given is cell-based, human. On the procedure:
as §1, §2, §3, §4

In another test the test system is HOP-92. The test is described as follows: NCI screening panel, HOP-92 (Non-Small Cell Lung Cancer). It is filed as cell-based, human. As to the method: as §1, §2, §3, §4

Where only a bound is given, the exact number is not on record here.

As to `CC(C)C[C@H](NC(=O)[C@H](COC(F)F)NC(=O)CN1CCOCC1)C(=O)N[C@@H](Cc1ccccc1)C(=O)N[C@@H](CC(C)C)C(=O)[C@@]1(C)CO1` [Example 2, (2S)-N-[(1S)-1-benzyl-2-[[(1S)-3-methyl-1-[(2R)-2-methyloxirane-2-carbonyl]butyl]-amino]-2-oxo-ethyl]-2-[[(2S)-3-(difluoromethoxy)-2-[(2-morpholinoacetyl)amino]propanoyl]amino]-4-methyl-pentanamide], the IC50 with OCI-AML-2 stood at 8.41 ± 2.24 nM. In the test with K-562, this compound registered a Log10GI50 of −7.49, a Log10LC50 greater than −4.00 and a Log10TGI50 greater than −4.00. In the test with HCC-2998, the Log10GI50 is listed as −7.77, the Log10LC50 is −7.15 and the Log10TGI50 is on record as −7.46.

For `CC(C)C[C@H](NC(=O)[C@H](COC(F)F)NC(=O)CN1CCOCC1)C(=O)N[C@@H](Cc1ccccc1)C(=O)N[C@@H](Cc1ccccc1)C(=O)[C@@]1(C)CO1` [Example 3, (2S)-N-[(1S)-1-benzyl-2-[[(1S)-1-benzyl-2-[(2R)-2-methyloxiran-2-yl]-2-oxo-ethyl]amino]-2-oxo-ethyl]-2-[[(2S)-3-(difluoromethoxy)-2-[(2-morpholinoacetyl)-amino]propanoyl]amino]-4-methyl-pentan-amide], the 50% inhibitory concentration (IC50) in the test with OCI-AML-2 was 16.3 ± 5.96 nM. In addition, in the test on CCRF-CEM, the Log10GI50 is given as less than −8.00, the Log10LC50 is greater than −4.00 and the Log10TGI50 is listed as −4.88. In the test on K-562, this compound came in with a Log10GI50 of −7.77, a Log10LC50 greater than −4.00 and a Log10TGI50 greater than −4.00. Also, in the test with HCC-2998, the Log10GI50 is given as −7.78, the Log10LC50 is on record as −7.18 and the Log10TGI50 is listed as −7.48.

In the case of `CC(C)C[C@H](NC(=O)[C@H](COC(F)F)NC(=O)CN1CCOCC1)C(=O)N[C@@H](COC(F)F)C(=O)N[C@@H](Cc1ccccc1)C(=O)[C@@]1(C)CO1` [Example 4, (2S)-N-[(1S)-2-[[(1S)-1-benzyl-2-[(2R)-2-methyloxiran-2-yl]-2-oxo-ethyl]amino]-1-(difluoromethoxymethyl)-2-oxo-ethyl]-2-[[(2S)-3-(difluoromethoxy)-2-[(2-mor-pholinoacetyl)amino]propanoyl]amino]-4 methyl-pentanamide], the IC50 in the test with OCI-AML-2 is 54.7 ± 10.8 nM. Further, the Log10GI50 with CCRF-CEM was less than −8.00; in the test on K-562, −7.26; with HOP-92, −7.59; in the test with HCC-2998, −7.29. Moreover, the Log10LC50 is given as greater than −4.00 with CCRF-CEM, greater than −4.00 in the test with K-562, −6.24 in the test on HOP-92 and −6.30 in the test on HCC-2998. The Log10TGI50 with CCRF-CEM is recorded as greater than −4.00; with K-562 it was greater than −4.00; in the test on HOP-92 it was −7.15; with HCC-2998 it was −6.75.

In the test on OCI-AML-2, `CC(C)C[C@H](NC(=O)[C@H](COC(F)F)NC(=O)[C@H](COC(F)F)NC(=O)[C@H](CCc1ccccc1)NC(=O)CN1CCOCC1)C(=O)[C@@]1(C)CO1` [Example 7, (2S)-N-[(1S)-1-(difluoromethoxymethyl)-2-[[(1S)-1-(difluoromethoxymethyl)-2-[[(1S)-3-methyl-1-[(2R)-2-methyloxirane-2-carbo-nyl]butyl]amino]-2-oxo-ethyl]amino]-2-oxo-ethyl]-2-[(2-morpholinoacetyl)amino]-4-phenyl-butanamide] yielded an IC50 of 61.1 ± 10.1 nM. The Log10GI50 is recorded as less than −8.00 in the test with CCRF-CEM, −7.37 in the test on K-562, −7.71 in the test with HOP-92 and −7.60 in the test with HCC-2998. Also, the Log10LC50 in the test on CCRF-CEM is on record as greater than −4.00; with K-562, greater than −4.00; in the test on HOP-92 it was −6.54; in the test with HCC-2998 it was −6.55. Also, the Log10TGI50 in the test on CCRF-CEM is recorded as greater than −4.00; in the test on K-562 it was greater than −4.00; in the test on HOP-92, −7.28; in the test on HCC-2998 it was −7.21.

For the compound `CC(C)C[C@H](NC(=O)[C@H](Cc1ccccc1)NC(=O)[C@H](COC(F)F)NC(=O)[C@H](COC(F)F)NC(=O)CN1CCOCC1)C(=O)[C@@]1(C)CO1` [Example 11, (2S)-2-[[(2S)-3-(difluoromethoxy)-2-[[(2S)-3-(difluoromethoxy)-2-[(2-morpholinoacetyl)-amino]propanoyl]amino]propanoyl]amino]-N-[(1S)-3-methyl-1-[(2R)-2-methyloxirane-2-carbonyl]butyl]-3-phenyl-propanamide], it took 15.7 ± 3.56 nM to reach half-maximal inhibition in the test with OCI-AML-2 (IC50). Further, the Log10GI50 in the test with CCRF-CEM is less than −8.00; with K-562, −7.36; with HOP-92, −7.62; in the test with HCC-2998, −7.66. In addition, the Log10LC50 is reported as greater than −4.00 in the test on CCRF-CEM, greater than −4.00 with K-562, −6.26 with HOP-92 and −6.95 in the test on HCC-2998. The Log10TGI50 with CCRF-CEM is reported as −4.57; with K-562, greater than −4.00; in the test on HOP-92 it was −7.15; with HCC-2998, −7.33.

For `CC(C)C[C@H](NC(=O)[C@H](COC(F)F)NC(=O)[C@H](COC(F)F)NC(=O)[C@H](COC(F)F)NC(=O)CN1CCOCC1)C(=O)[C@@]1(C)CO1` [Example 17, (2S)-3-(difluoromethoxy)-N-[(1S)-1-(difluoromethoxymethyl)-2-[[(1S)-1-(difluoro-methoxymethyl)-2-[[(1S)-3-methyl-1-[(2R)-2-methyloxirane-2-carbonyl]butyl]amino]-2-oxo-ethyl]amino]-2-oxo-ethyl]-2-[(2-mor-pholinoacetyl)amino]-propanamide], the IC50 in the test with OCI-AML-2 worked out at 136 ± 36.8 nM. The Log10GI50 with CCRF-CEM is recorded as −7.39; in the test on K-562, −6.77; in the test with HOP-92 it was −7.56; with HCC-2998, −6.74. Further, the figures for the Log10LC50 with CCRF-CEM, in the test with HOP-92 and with HCC-2998 were greater than −4.00, −6.02 and −6.19, respectively. Further, the Log10TGI50 in the test with CCRF-CEM is recorded as greater than −4.00; in the test with K-562, greater than −4.00; in the test on HOP-92 it was −7.01; in the test with HCC-2998, −6.46.
